The subject of assay [1] is EGFR protein (EGFR L858R/T790M, H1975). As to the kind of experiment: Effect on signaling pathway in cells, H1975. The assay is classed as cell-based, human. The following applies: 4 h. An excerpt:
In four cell lines (all purchased from ATCC) including non-small cell lung cancer cell line A549 (expressing wild-type EGFR gene), non-small cell lung cancer cell line H1975 (expressing EGFR L858R/T790M double mutant gene), non-small cell lung cancer cell line H3255 (expressing EGFR L858R mutant gene) and non-small cell lung cancer cell line PC-9 (expressing EGFR delE746_A750 mutant gene), the effect of Compound 1 on EGFR or other protein kinases related to signaling pathways of EGFR such as Stat3, AKT, ErK, eIF4E, 4EBP1, P70S6K was assessed by assaying a number of cellular biochemical and functional endpoints. […] The effect of Compound 1 on phosphorylation of Stat3Y705, AKT T308, AKT 5473, Erk T202/204, EGFR Y1068, P70S6K Thr389, eIF4E Ser209, Erk T202/204, 4EBP1 (Thr37/46) in these cell lines was assayed (FIGS. 1a to 1d).
In non-small cell lung cancer cell line H1975 (expressing EGFR L858R/T790M double mutant gene), the effect of Compound 10 on EGFR and other protein kinases that are closely related to the signaling pathways of EGFR such as Stat3, AKT, ErK, eIF4E, 4EBP1, P70S6K in this cell was assessed by assaying a number of cellular biochemical and functional endpoints. […] The effect of Compound 10 on phosphorylation of Stat3Y705, AKT T308, AKT S473, Erk T202/204, EGFR Y1068, P70S6K Thr389, eIF4E Ser209, Erk T202/204, 4EBP1 (Thr37/46) in this cell line was assayed (FIG. 1g).

Another assay has as its system H1975. The assay is described as follows: Effect on cell cycle (PI staining, flow cytometer), H1975. The following applies: H1975 (EGFR L858R/T790M), 24 hours. The assay is classed as cell-based, human. An excerpt: In order to study which growth phase the cell was halted after administration of the drugs, five cell lines including non-small cell lung cancer cell line A549 (expressing wild-type EGFR gene), non-small cell lung cancer cell line H1975 (expressing EGFR L858R/T790M double mutant gene), non-small cell Lung cancer cell line PC-9 (expressing EGFR delE746_A750 mutant gene), non-small cell lung cancer cell line H3255 (expressing EGFR L858R mutant gene) and non-small cell lung cancer cell NCI-H3122 (expressing ALK gene) were tested for effect of Compound 1 on cell cycle distribution. Two cell lines including non-small cell lung cancer cell NCI-H3122 (expressing ALK gene) and non-small cell lung cancer cell H1975 (expressing EGFR L858R/T790M double mutant gene) were tested for effect of Compound 10 on cell cycle distribution. […]
For orientation: A flow cytometer gives signals particle by particle.

Structures are written as SMILES.

Take `C=CC(=O)Nc1cc(Nc2ncc(Cl)c(Nc3ccccc3S(=O)(=O)C(C)C)n2)c(OC)cc1N1CCN(CC)CC1` [Compound 1, N-(5-(5-chloro-4-(2-(isopropylsulfonyl)phenylamino)pyrimidin-2-ylamino)-2-(4-ethylpiperazin-1-yl)-4-methoxyphenyl)acrylamide]: the “concentration able to completely inhibit the phosphorylation of EGFR protein (also affects AKT and ERK phosphorylation)” value in assay [1] was 0.03 µM. Further, the “effect on cell cycle distribution” value in the assay with H1975 was “halt the cells in G0-G1 phase”.
For `C=CC(=O)Nc1cc(Nc2ncc(Cl)c(Nc3ccccc3S(=O)(=O)C(C)C)n2)c(OC)cc1N1CCCN(C)CC1` [Compound 10, N-(5-(5-chloro-4-(2-(isopropylsulfonyl)phenylamino)pyrimidin-2-ylamino)-4-methoxy-2-(4-methyl-1,4-homopiperazin-1-yl)phenyl)acrylamide], in that order: 0.03 µM and “halt the cells in G0-G1 phase”.

Values taken from patent US10350210B2, “EGFR and ALK dual inhibitor” (PRECEDO PHARMACEUTICALS CO., LTD, priority 2015, dated 2019).
